Measured values as given in patent US20170027172A1, “USE OF SUBSTITUTE OXO TETRAHYDROQUINOLINE SULFONAMIDES OR SALTS THEREOF FOR RAISING STRESS TOLERANCE OF PLANTS” (BAYER CROPSCIENCE AKTIENGESELLSCHAFT, priority 2014, published 2017).

Test system: Brassica napus
Assay: Drought stress greenhouse test Part C, visual scoring vs stressed control plants
Format: in vivo
Details: spray application 25 g/ha, efficacy range of 3-4 pots
Method: Seeds of monocotyledonous and dicotyledonous crop plants were sown in sandy loam in plastic or wood-fiber pots, covered with soil or sand and cultivated in a greenhouse under good growth conditions. The trial plants were treated at the early leaf stage (BBCH10-BBCH13). To assure uniform water supply before commencement of stress, the potted plants were supplied with water by dam irrigation prior to substance application. The inventive compounds were first formulated as wettable powders (WP) or dissolved in a solvent mixture. The further dilution was effected with water supplemented with 0.2% wetting agent (e.g. agrotin). The finished spray liquor was sprayed onto the green parts of the plant at an equivalent water application rate of 600 l/ha. Substance application was followed immediately by stress treatment of the plants. For this purpose, the wood-fiber pots were transferred in plastic inserts in order to prevent them from subsequently drying out too quickly. Drought stress was induced by gradual drying out under the following conditions: “Day”: 14 hours with illumination at 26-30° C. […] Once this juncture had been reached, the appearance of the plants treated with test substances was recorded in comparison to the stressed control plants by the following categories: [table] For each substance and dosage, 3-4 pots were treated and evaluated. […]

COC(=O)CCN1C(=O)CCc2cc(NS(=O)(=O)Cc3ccc(F)cc3)ccc21 [A51-158]
Effect (BRSNS): 20-30
